Publication PMC11251039, “Harnessing cholesterol uptake of malaria parasites for therapeutic applications” (EMBO Molecular Medicine, 2024)
Several values for one entry are separate records, joined by “and”; a condition that tells them apart may be missing. Identical values can stand only once. Like-named read-outs stand apart in the source and are kept apart here.

What was measured:
[1] = test system: P. falciparum CAM3.II ring stages (0–3 h post invasion); experiment: Plasmodium falciparum ring stage survival assay, resistant strain; assay type: cell-based; settings: for Ring stage survival, individual data points (Figure 4C): CAM3.11, replicate experiments
Protocol: (§1) Following tight synchronisation using sorbitol and Percoll® floatation, ring stage CAM3.II and CAM3.IIREV parasites (0–3 h post invasion) at 1% parasitaemia and 2% haematocrit were incubated with 700 nM of compounds or solvent-only controls for exactly 6 h, before removing the drug, thoroughly washing in RPMI with HEPES, and returning to culture conditions for a further 66 h. Some cells were treated with 700 nM artesunate for 72 h as a no-growth control. DNA replication (indicating growth) was measured at the specified time using SYBR Safe DNA Stain. Microscope slide smears of each condition were stained with 10% v/v Giemsa and examined under a light microscope (×1000 magnification); with ‘viable’ (morphologically normal) and ‘non-viable’ (morphologically aberrant; vacuolated or pyknotic) parasites distinguished according to standard protocol (Witkowski et al, [2013]). Images were captured using a Leica ICC50 camera, with a resolution of 76 nm per pixel, and cropped from larger images using Fiji ImageJ.
(§2) Appendix Fraser/Curtis et al.
(§3) Cells were detached from a flask using 0.25% Trypsin with 0.2 g/L EDTA (Sigma T4049) and washed with culture media containing no phenol red. Cells were incubated with a serial dilution of each compound, or media/DMSO alone. The protein synthesis inhibitor cycloheximide (Sigma 01810) at 10 µg/mL was used as a positive control to determine background absorbance. 5,000 cells were seeded in each well. After 96 hours, 0.45 mg/mL methylthiazolyldiphenyl-tetrazolium bromide (MTT; Sigma M2128) was added and incubated for a further two hours, before mixing 1.1:1 with 10% w/v sodium dodecyl sulfate (SDS) to solubilise crystals and freezing the plate at -18 °C to stop the assay. Plates were defrosted at room temperature and absorbance was read at 570 nm in an Infinite M1000 pro plate reader […]
(§4) Plasmodium falciparum Ring Stage Survival Assay
(§5) Ring stage survival assays were conducted according to standard protocols with some modifications (27, 28). CAM3.11 and CAM3.11REV parasites were sorbitol synchronised twice, 12 hours apart, and then incubated for a further 30 hours until the majority of the parasites were mature schizonts (with clearly separated nuclei). Pelleted RBCs were incubated at 37 °C with heparinised RPMI for 15 minutes, and then centrifuged over 75% Percoll® in PBS for 15 minutes at 1,000 g. Mature schizonts were collected, washed with warm RPMI, and cultured for exactly three hours with fresh uRBCs and culture media. After 3 hours, the cultures were sorbitol synchronised and incubated in duplicate with 700 nM of artesunate, PAYb076a, GGA5, HJB8a53, a DMSO solvent-only control or media alone for exactly six hours, before removing the drug, washing in RPMI, and returning to culture conditions. Samples of each cell suspension were transferred to a -18 °C freezer at the start of the assay (time = 0) or treated for the entire 72 hours with 700 nM artesunate to determine background fluorescence under no-growth conditions. After a further 66 hours of incubation (totalling 72 hours), cells were […]
(§6) resuspended, and a sample from each well was transferred to a fresh plate and frozen at -18 °C.
(§7) Microscope slide smears were made using the remaining cells and stained with 10% v/v Giemsa. Plates were thawed and SYBR Safe DNA Gel Stain (final concentration 1/10,000) diluted in lysis buffer (as above) was added for DNA detection at 490 nm excitation / 520 nm emission on a FLUOstar Optima fluorescence plate reader. Parasite proliferation and viability were also assessed using Giemsa-stained smears examined under a light microscope (1,000× magnification); with ‘viable’ and ‘non-viable’ (vacuolated or pyknotic) parasites distinguished according to standard protocol. Images were captured using a Leica ICC50 camera, with a resolution of 76 nm per pixel.
(§8) Growth inhibition data were normalised by subtracting background fluorescence, […]

[2] = test system: P. falciparum CAM3.IIREV ring stages (0–3 h post invasion); experiment: Plasmodium falciparum ring stage survival assay, susceptible revertant strain; assay type: cell-based; settings: for Parasite morphology in Giemsa-stained smears: 700 nM, 6 h treatment, 66 h further growth, CAM3.IIREV susceptible; for Ring stage survival, individual data points (Figure 4C): CAM3.11REV, replicate experiments
Protocol: as §1, §2, §3, §4, §5, §6, §7, §8

[3] = test system: asexual P. falciparum 3D7 wild-type parasites; experiment: P. falciparum asexual growth inhibition assay (SYBR Safe DNA replication); assay type: cell-based, Plasmodium falciparum; settings: Plasmodium falciparum, 72 h, 3D7 (Susceptible), read-out: IC50, P. falciparum asexual growth inhibition
Protocol: P. falciparum asexual parasite assays commenced with ring-stage parasites at 1% parasitaemia and 1% haematocrit. 200 nM chloroquine (Sigma C6628) or artesunate (Sigma A3731) was used as a no-growth control. DNA replication (indicating growth) was measured at the specified time using SYBR Safe DNA Gel Stain (Invitrogen 33102) and a fluorescence microplate reader (Smilkstein et al, [2004]; Spry et al, [2013]). […]
(§9) Growth and Viability Inhibition Assays:
(§10) Plasmodium falciparum Growth Inhibition Assays:
(§11) P. falciparum parasites were maintained under routine culture conditions in red blood cells and RPMI 1640-Hepes with Glutamax, supplemented with 10 mM D-glucose, 480 μM hypoxanthine, 20 μg/mL gentamicin, 0.375% (w/v) AlbuMAXTM II (Thermo Fisher 11021029), and 2.5% v/v heat-inactivated human serum (17). Cultures were maintained at 37 °C […]
wildtype parasites except for the ring stage survival assay, as specified. Cultures were synchronised with 5% w/v D-sorbitol (18).
Growth inhibition was investigated according to methods described by Smilkstein et al. (19) with modifications by Spry et al. (20). Compounds or solvent controls (DMSO, ethanol, or ethyl acetate) were serially diluted 2-fold across flat-bottom 96-well plates. Culture media without compound was used as a negative control. 200 nM chloroquine (Sigma C6628) or artesunate (Sigma A3731) was used as a positive control to determine background fluorescence. The parasitaemia of a culture containing predominantly ring stage parasites was counted by Giemsa smear. The parasitaemia was adjusted to 1% by addition of fresh uRBCs and added to the plate at a final haematocrit of 1%, with 200 µL per well. The plates were incubated at 37 °C under humid microaerophilic conditions. After 24, 48, or 72 hours, the plates were transferred to a -18 °C freezer to stop the assay and lyse cells. Plates were thawed and lysate was mixed 1:1 with SYBR Safe DNA Gel Stain (Invitrogen 33102) (final concentration 1/10,000) diluted in lysis buffer (20 mM TRIS, 5 mM EDTA, 0.008% w/v Saponin, 0.08% w/v Triton-X 100, pH 7.5). Fluorescence was detected at 490 nm excitation/ 520 nm emission on a FLUOstar Optima fluorescence plate reader (BMG Labtech).

[4] = test system: asexual P. falciparum CAM3.II (Resistant); experiment: P. falciparum asexual growth inhibition assay, resistant strain; assay type: cell-based; settings: Plasmodium falciparum, 72 h, read-out: IC50, P. falciparum asexual growth inhibition
Protocol: (§12) P. falciparum asexual parasite assays commenced with ring-stage parasites at 1% parasitaemia and 1% haematocrit. 200 nM chloroquine (Sigma C6628) or artesunate (Sigma A3731) was used as a no-growth control. DNA replication (indicating growth) was measured at the specified time using SYBR Safe DNA Gel Stain (Invitrogen 33102) and a fluorescence microplate reader (Smilkstein et al, [2004]; Spry et al, [2013]).
as §2, §9, §10, §11
(§13) Growth inhibition was investigated according to methods described by Smilkstein et al. (19) with modifications by Spry et al. (20). […] 200 nM chloroquine (Sigma C6628) or artesunate (Sigma A3731) was used as a positive control to determine background fluorescence. The parasitaemia of a culture containing predominantly ring stage parasites was counted by Giemsa smear. […] Fluorescence was detected at 490 nm excitation/ 520 nm emission on a FLUOstar Optima fluorescence plate reader (BMG Labtech).

[5] = test system: asexual P. falciparum CAM3.IIREV (Susceptible); experiment: P. falciparum asexual growth inhibition assay, revertant strain; assay type: cell-based; settings: Plasmodium falciparum, 72 h, read-out: IC50, P. falciparum asexual growth inhibition
Protocol: as §12, §2, §9, §10, §11, §13

[6] = set-up: method as in Morris et al, 2011; settings: ref Morris et al, 2011; cited from earlier work
[7] = 700 nM, 6 h treatment, 66 h further growth, CAM3.II resistant

SMILES	Parasite morphology in Giemsa-stained smears [1, 7]	Ring stage survival, individual data points (Figure 4C) ([1]; listed as GGA5)	Parasite morphology in Giemsa-stained smears [2]	Ring stage survival, individual data points (Figure 4C) ([2]; listed as GGA5)	IC50 [3] [nM]	IC50 ([4]; CAM3.II (Resistant)) [nM]	IC50 [5] [nM]	Proportion of resistant parasites surviving treatment (DNA replication) ([1]; 700 nM, 6 h treatment, 66 h further growth, CAM3.II)	Ring stage survival, individual data points (Figure 4C) [1]	Ring stage survival, individual data points (Figure 4C) [2]	Half-life in blood [6] [min]	IC50 ([3]; 3D7, 72 h) [nM]	IC50 [4] [nM]	Ring stage survival, growth [1, 7]	Ring stage survival, individual data points (Figure 4C) ([1]; listed as PAYb076a)	Ring stage survival, individual data points (Figure 4C) ([2]; listed as PAYb076a)
CC(C)OC(=O)CCC(=O)OC1OC2OC3(C)CCC4C(C)CCC(C1C)C24OO3 (stereo not drawn) [ART-link]	a combination of morphologically normal parasites (green arrows) and morphologically aberrant pyknotic or vacuolated forms	38.82 and -2.964 and -8.71 and 33.42	only morphologically aberrant parasites were present	-11.62 and -13.91 and -17.49 and -9.785	–	–	–	–	–	–	–	–	–	–	–	–
C[C@H]1[C@H](OC(=O)CCC(=O)O)O[C@@H]2O[C@@]3(C)CC[C@H]4[C@H](C)CC[C@@H]1[C@@]24OO3 [Artesunate, artesunate, reference compound]	a combination of morphologically normal parasites (green arrows) and morphologically aberrant pyknotic or vacuolated forms	–	only morphologically aberrant parasites were present	–	6.7	6.7	5.7	~ 30%	35.31 and 54.58 and 24.97 and 17.6	-6.969 and -6.239 and -6.353 and -8.044	30 to 90	–	–	–	–	–
CC1CCC2C(C)C(OC(=O)CCC(=O)OC3CCC4C5CC=C6CC(O)CCC6(C)C5CCC34C)OC3OC4(C)CCC1C32OO4 (stereo not drawn) [C-17-ART]	only aberrant, non-viable parasites were visible	–	only morphologically aberrant parasites were present	–	–	–	11	–	–	–	–	10.6	10.5	complete growth inhibition	5.574 and -1.717 and 1.804 and -19.52	-3.583 and -11.02 and -24.87 and -14.11
